Consider one compound from patent US20030207014A1, “Animal feed and additive for animal feed to control feed borne pathogens” (priority 2002, published 2003).

In data set [1] the test system is microbes present in animal feeds. Description: laboratory tests of anti-microbial action in animal feed. From the text: These properties make sodium percarbonate an ideal feed additive for animal feeds. In the preferred embodiments of the present invention sodium percarbonate is included in the feed formulations prior to the pellet forming process common to most animal feed processing procedures. […] This is due to the broad disinfection action of the sodium percarbonate upon all bacteria and the spores of bacteria, fungi, and algae.
Such mammalian animal proteins have been banned throughout Europe although they continue to be used in other parts of the world. Otherwise the animal feeds in accordance with present invention are substantially the same as conventional animal feeds with the addition of sodium percarbonate.

The nature of data set [2]: feeding of treated feed to livestock / poultry. Format: in vivo. From the text:
The preferred proportion of sodium percarbonate will vary for the specific animal feed composition and the specific animal consuming the feed as well as various environmental factors.

The nature of data set [3]: stability under pressure steam sterilization. Format: physicochemical.

`O=C([O-])[O-].O=C([O-])[O-].OO.OO.OO.[Na+].[Na+].[Na+].[Na+]` [sodium percarbonate]: in data set [1] (animal feeds that do not include mammalian animal proteins), the “effectiveness depending on feed composition” value is reported as “greatest”. In addition, in data set [1] (laboratory tests, all bacteria and spores of bacteria, fungi, algae), the anti-microbial effectiveness entry is “effective against all microbes present in animal feeds”. The “acceptance of treated feed” value in data set [2] (livestock) was “readily accepted”. Further, in data set [2] (poultry, rates of 2-8% by weight in feed), the digestive reactions result is reported as “no untold digestive reactions”. Further, the stability entry in data set [3] is listed as “very stable”.
